Data on 10 compounds can be found in US12295936B2, “Immunomodulating urea azalides” (Zoetis Services LLC, priority 2020, dated 2025).

Where two headings read alike, the source gives them in different places. Some results are limits rather than exact numbers.

What all share (test): LPS-stimulated whole bovine blood assay, MSD cytokine detection
Holding throughout (type): cell-based

One assay has as its system IL-1β. As to conditions: overstimulation of IL-1β, LPS-stimulated bovine whole blood.
Another assay deals with IL-6. The settings on record: Bos taurus, read-out: IL-6 (IC50 μM). The text has this: In order to correlate RNA sequencing data to cytokine changes the whole blood assay was utilized. […] The enhancement result represents an overall stimulation of cytokine levels due to cellular stress or potential toxicity with increasing concentrations of the compound, representing a typical bell shape response curve for immunomodulatory activity.

In a further assay the test system is TNF-α. As to conditions: Bos taurus, read-out: TNF-α (IC50 μM).
The mark [1] stands for this setting: LPS-stimulated bovine whole blood.

In the case of `CCCNC[C@]1(O)[C@H](C)O[C@@H](O[C@H]2[C@H](C)[C@@H](O[C@@H]3O[C@H](C)C[C@H](N(C)C(=O)N4Cc5ccccc5C4)[C@H]3O)[C@](C)(O)C[C@@H](C)CN[C@H](C)[C@@H](O)[C@](C)(O)[C@@H](CC)OC(=O)[C@@H]2C)C[C@@]1(C)OC` [Example I-7, N-((2S,3R,4S,6R)-2-(((2R,3S,4R,5R,8R,10R,11R,12S,13S,14R)-2-ethyl-3,4,10-trihydroxy-13-(((2R,4R,5S,6S)-5-hydroxy-4-methoxy-4,6-dimethyl-5-((propylamino)methyl)tetrahydro-2H-pyran-2-yl)oxy)-3,5,8,10,12,14-hexamethyl-15-oxo-1-oxa-6-azacyclopentadecan-11-yl)oxy)-3-hydroxy-6-methyltetrahydro-2H-pyran-4-yl)-N-methylisoindoline-2-carboxamide], the “IL-1β OS of LPS” value in the assay with IL-1β came to 6 µM. The IC50 (in general, the concentration needed to halve the response being measured) in the assay with IL-6 (setting [1]) was determined as 16 µM; with TNF-α (setting [1]) it was 8 µM.
`CC[C@H]1OC(=O)[C@H](C)[C@@H](O[C@H]2C[C@@](C)(OC)[C@](O)(CN3CCN(C)CC3)[C@H](C)O2)[C@H](C)[C@@H](O[C@@H]2O[C@H](C)C[C@H](N(C)C(=O)NC3CCCCC3)[C@H]2O)[C@](C)(O)C[C@@H](C)CN[C@H](C)[C@@H](O)[C@]1(C)O` [Example J-1, 3-cyclohexyl-1-((2S,3R,4S,6R)-2-(((2R,3S,4R,5R,8R,10R,11R,12S,13S,14R)-2-ethyl-3,4,10-trihydroxy-13-(((2R,4R,5S,6S)-5-hydroxy-4-methoxy-4,6-dimethyl-5-((4-methylpiperazin-1-yl)methyl)tetrahydro-2H-pyran-2-yl)oxy)-3,5,8,10,12,14-hexamethyl-15-oxo-1-oxa-6-azacyclopentadecan-11-yl)oxy)-3-hydroxy-6-methyltetrahydro-2H-pyran-4-yl)-1-methylurea]: the “IL-1β OS of LPS” value in the assay with IL-1β was determined as 200 µM. In addition, the half-maximal inhibitory concentration (IC50) was found to be 250 µM in the assay on IL-6 (setting [1]) and 70 µM in the assay on TNF-α (setting [1]).
On the same counts, the results for `CCNC(=O)N(C)[C@H]1C[C@@H](C)O[C@@H](O[C@@H]2[C@@H](C)[C@H](O[C@H]3C[C@@](C)(OC)[C@](O)(CN4CCN(C)CC4)[C@H](C)O3)[C@@H](C)C(=O)O[C@H](CC)[C@@](C)(O)[C@H](O)[C@@H](C)NC[C@H](C)C[C@@]2(C)O)[C@@H]1O` [Example J-2, 3-ethyl-1-((2S,3R,4S,6R)-2-(((2R,3S,4R,5R,8R,10R,11R,12S,13S,14R)-2-ethyl-3,4,10-trihydroxy-13-(((2R,4R,5S,6S)-5-hydroxy-4-methoxy-4,6-dimethyl-5-((4-methylpiperazin-1-yl)methyl)tetrahydro-2H-pyran-2-yl)oxy)-3,5,8,10,12,14-hexamethyl-15-oxo-1-oxa-6-azacyclopentadecan-11-yl)oxy)-3-hydroxy-6-methyltetrahydro-2H-pyran-4-yl)-1-methylurea] are more than 500 µM, more than 500 µM and more than 500 µM.
As for `CC[C@H]1OC(=O)[C@H](C)[C@@H](O[C@H]2C[C@@](C)(OC)[C@](O)(CN3CCN(C)CC3)[C@H](C)O2)[C@H](C)[C@@H](O[C@@H]2O[C@H](C)C[C@H](N(C)C(N)=O)[C@H]2O)[C@](C)(O)C[C@@H](C)CN[C@H](C)[C@@H](O)[C@]1(C)O` [Example J-5, 1-((2S,3R,4S,6R)-2-(((2R,3S,4R,5R,8R,10R,11R,12S,13S,14R)-2-ethyl-3,4,10-trihydroxy-13-(((2R,4R,5S,6S)-5-hydroxy-4-methoxy-4,6-dimethyl-5-((4-methylpiperazin-1-yl)methyl)tetrahydro-2H-pyran-2-yl)oxy)-3,5,8,10,12,14-hexamethyl-15-oxo-1-oxa-6-azacyclopentadecan-11-yl)oxy)-3-hydroxy-6-methyltetrahydro-2H-pyran-4-yl)-1-methylurea], the “IL-1β OS of LPS” value in the assay on IL-1β is more than 500 µM. Besides, the IC50 with IL-6 (setting [1]) and with TNF-α (setting [1]) was more than 500 µM each time.
For the compound `CC[C@H]1OC(=O)[C@H](C)[C@@H](O[C@H]2C[C@@](C)(OC)[C@](O)(CN3CCN(C)CC3)[C@H](C)O2)[C@H](C)[C@@H](O[C@@H]2O[C@H](C)C[C@H](N(C)C(=O)Nc3ccc(N(C)C)cc3)[C@H]2O)[C@](C)(O)C[C@@H](C)CN[C@H](C)[C@@H](O)[C@]1(C)O` [Example J-6, 3-(4-(dimethylamino)phenyl)-1-((2S,3R,4S,6R)-2-(((2R,3S,4R,5R,8R,10R,11R,12S,13S,14R)-2-ethyl-3,4,10-trihydroxy-13-(((2R,4R,5S,6S)-5-hydroxy-4-methoxy-4,6-dimethyl-5-((4-methylpiperazin-1-yl)methyl)tetrahydro-2H-pyran-2-yl)oxy)-3,5,8,10,12,14-hexamethyl-15-oxo-1-oxa-6-azacyclopentadecan-11-yl)oxy)-3-hydroxy-6-methyltetrahydro-2H-pyran-4-yl)-1-methylurea], the “IL-1β OS of LPS” value in the assay on IL-1β was more than 500 µM. Further, the IC50 in the assay on IL-6 (setting [1]) is more than 500 µM; in the assay with TNF-α (setting [1]), 225 µM.
On to `CC[C@H]1OC(=O)[C@H](C)[C@@H](O[C@H]2C[C@@](C)(OC)[C@](O)(CN3CCN(C)CC3)[C@H](C)O2)[C@H](C)[C@@H](O[C@@H]2O[C@H](C)C[C@H](N(C)C(=O)Nc3cccnc3)[C@H]2O)[C@](C)(O)C[C@@H](C)CN[C@H](C)[C@@H](O)[C@]1(C)O` [Example J-8, 1-((2S,3R,4S,6R)-2-(((2R,3S,4R,5R,8R,10R,11R,12S,13S,14R)-2-ethyl-3,4,10-trihydroxy-13-(((2R,4R,5S,6S)-5-hydroxy-4-methoxy-4,6-dimethyl-5-((4-methylpiperazin-1-yl)methyl)tetrahydro-2H-pyran-2-yl)oxy)-3,5,8,10,12,14-hexamethyl-15-oxo-1-oxa-6-azacyclopentadecan-11-yl)oxy)-3-hydroxy-6-methyltetrahydro-2H-pyran-4-yl)-1-methyl-3-(pyridin-3-yl)urea], for which, in the assay on IL-1β, the “IL-1β OS of LPS” value was more than 500 µM. Also, the 50% inhibitory concentration (IC50) with IL-6 (setting [1]) and in the assay on TNF-α (setting [1]) was more than 500 µM in each case.
Regarding `CC[C@H]1OC(=O)[C@H](C)[C@@H](O[C@H]2C[C@@](C)(OC)[C@](O)(CN3CC(N(C)C)C3)[C@H](C)O2)[C@H](C)[C@@H](O[C@@H]2O[C@H](C)C[C@H](N(C)C(=O)N(C)c3ccccc3)[C@H]2O)[C@](C)(O)C[C@@H](C)CN[C@H](C)[C@@H](O)[C@]1(C)O` [Example J-26, 1-((2S,3R,4S,6R)-2-(((2R,3S,4R,5R,8R,10R,11R,12S,13S,14R)-13-(((2R,4R,5S,6S)-5-((3-(dimethylamino)azetidin-1-yl)methyl)-5-hydroxy-4-methoxy-4,6-dimethyltetrahydro-2H-pyran-2-yl)oxy)-2-ethyl-3,4,10-trihydroxy-3,5,8,10,12,14-hexamethyl-15-oxo-1-oxa-6-azacyclopentadecan-11-yl)oxy)-3-hydroxy-6-methyltetrahydro-2H-pyran-4-yl)-1,3-dimethyl-3-phenylurea], in the assay on IL-1β, the “IL-1β OS of LPS” value came to 100 µM. Further, the results for the 50% inhibitory concentration (IC50) in the assay with IL-6 (setting [1]) and in the assay with TNF-α (setting [1]) were more than 250 µM and 122 µM, respectively.
Take `CC[C@H]1OC(=O)[C@H](C)[C@@H](O[C@H]2C[C@@](C)(OC)[C@](O)(Cn3cncn3)[C@H](C)O2)[C@H](C)[C@@H](O[C@@H]2O[C@H](C)C[C@H](N(C)C(=O)N(C)c3ccccc3)[C@H]2O)[C@](C)(O)C[C@@H](C)CN[C@H](C)[C@@H](O)[C@]1(C)O` [Example J-27, 1-((2S,3R,4S,6R)-2-(((2R,3S,4R,5R,8R,10R,11R,12S,13S,14R)-13-(((2R,4R,5S,6S)-5-((1H-1,2,4-triazol-1-yl)methyl)-5-hydroxy-4-methoxy-4,6-dimethyltetrahydro-2H-pyran-2-yl)oxy)-2-ethyl-3,4,10-trihydroxy-3,5,8,10,12,14-hexamethyl-15-oxo-1-oxa-6-azacyclopentadecan-11-yl)oxy)-3-hydroxy-6-methyltetrahydro-2H-pyran-4-yl)-1,3-dimethyl-3-phenylurea]: in the assay with IL-1β, the “IL-1β OS of LPS” value was found to be 250 µM. In addition, the figures for the concentration for half-maximal inhibition (IC50) with IL-6 (setting [1]) and in the assay on TNF-α (setting [1]) were 124 µM and 48 µM, respectively.
Take `CC[C@H]1OC(=O)[C@H](C)[C@@H](O[C@H]2C[C@@](C)(OC)[C@](O)(Cn3ccnn3)[C@H](C)O2)[C@H](C)[C@@H](O[C@@H]2O[C@H](C)C[C@H](N(C)C(=O)N(C)c3ccccc3)[C@H]2O)[C@](C)(O)C[C@@H](C)CN[C@H](C)[C@@H](O)[C@]1(C)O` [Example J-28, 1-((2S,3R,4S,6R)-2-(((2R,3S,4R,5R,8R,10R,11R,12S,13S,14R)-13-(((2R,4R,5S,6S)-5-((1H-1,2,3-triazol-1-yl)methyl)-5-hydroxy-4-methoxy-4,6-dimethyltetrahydro-2H-pyran-2-yl)oxy)-2-ethyl-3,4,10-trihydroxy-3,5,8,10,12,14-hexamethyl-15-oxo-1-oxa-6-azacyclopentadecan-11-yl)oxy)-3-hydroxy-6-methyltetrahydro-2H-pyran-4-yl)-1,3-dimethyl-3-phenylurea]: the “IL-1β OS of LPS” value with IL-1β is 100 µM. In addition, the IC50 in the assay on IL-6 (setting [1]) stood at 152 µM; with TNF-α (setting [1]) it was 57 µM.
In the case of `CC[C@H]1OC(=O)[C@H](C)[C@@H](O[C@H]2C[C@@](C)(OC)[C@](O)(Cn3cnnn3)[C@H](C)O2)[C@H](C)[C@@H](O[C@@H]2O[C@H](C)C[C@H](N(C)C(=O)N(C)c3ccccc3)[C@H]2O)[C@](C)(O)C[C@@H](C)CN[C@H](C)[C@@H](O)[C@]1(C)O` [Example J-29, 1-((2S,3R,4S,6R)-2-(((2R,3S,4R,5R,8R,10R,11R,12S,13S,14R)-13-(((2R,4R,5S,6S)-5-((1H-tetrazol-1-yl)methyl)-5-hydroxy-4-methoxy-4,6-dimethyltetrahydro-2H-pyran-2-yl)oxy)-2-ethyl-3,4,10-trihydroxy-3,5,8,10,12,14-hexamethyl-15-oxo-1-oxa-6-azacyclopentadecan-11-yl)oxy)-3-hydroxy-6-methyltetrahydro-2H-pyran-4-yl)-1,3-dimethyl-3-phenylurea], the “IL-1β OS of LPS” value in the assay on IL-1β came to 40 µM. In addition, the results for the IC50 with IL-6 and with TNF-α were 56 µM and 19 µM, respectively.
